Here are results for 8 compounds from publication PMC10150359 (Journal of Medicinal Chemistry, 2023).

For data set [1], the system named is VSV-G-pseudotype virus (pVSV-G). Description: microbe, parasite or virus in culture. The settings on record: Vesicular stomatitis virus, read-out: %inh@10 µM (pVSV-G). The format is cell-based.
Data set [2] has as its system EBOV-GP-Pseudotype Virus (pEBOV).
Data set [3] relates to wild-type Zaire EBOV Mayinga 1976 strain (EBOV May).
Data set [4] has as its system EBOV-GP-Pseudotype Virus (pEBOV). The settings on record: cited from earlier work.
Data set [5] has the same test system. Description: microbe, parasite or virus in culture. The settings on record: Zaire ebolavirus, HeLa, 48 h, read-out: EC50 (μM) (pEBOV).
For data set [6], the system named is wild-type Zaire EBOV Mayinga 1976 strain (EBOV May). Description: microbe, parasite or virus in culture. The note with it: Zaire ebolavirus, Vero C1008, 72 h, read-out: EC50 (μM), replicative EBOV.
Data set [7] can be described thus: in vitro. The note with it: human.
The nature of data set [8]: in vitro. The note with it: chlorocebus sabaeus.
Data set [9] deals with EBOV-GPcl/NPC1-domain C (Zaire ebolavirus, UniProt Q05320). In kind it is binding, Homo sapiens.
Chain of EBOV-GPcl/NPC1-domain C (Q05320 33-190 limits assumed): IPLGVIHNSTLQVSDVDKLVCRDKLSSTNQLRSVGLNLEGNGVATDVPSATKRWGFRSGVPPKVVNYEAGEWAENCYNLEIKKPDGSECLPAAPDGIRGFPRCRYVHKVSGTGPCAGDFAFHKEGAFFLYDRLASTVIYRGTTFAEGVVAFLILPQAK
Chain of EBOV-GPcl/NPC1-domain C (Q05320 502-676 limits assumed): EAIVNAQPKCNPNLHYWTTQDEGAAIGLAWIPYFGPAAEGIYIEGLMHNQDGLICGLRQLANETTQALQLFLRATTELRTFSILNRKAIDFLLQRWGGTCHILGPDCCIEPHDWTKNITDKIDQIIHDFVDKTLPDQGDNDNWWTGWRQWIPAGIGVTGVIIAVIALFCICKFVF
For data set [10] the following is noted: pH 7.4.
The conditions of data set [11]: CD-1, mouse, pH 7.4.
In data set [12] the target is T1, hERG potassium channel (Homo sapiens, UniProt Q12809).
T1 sequence (Q12809 whole entry): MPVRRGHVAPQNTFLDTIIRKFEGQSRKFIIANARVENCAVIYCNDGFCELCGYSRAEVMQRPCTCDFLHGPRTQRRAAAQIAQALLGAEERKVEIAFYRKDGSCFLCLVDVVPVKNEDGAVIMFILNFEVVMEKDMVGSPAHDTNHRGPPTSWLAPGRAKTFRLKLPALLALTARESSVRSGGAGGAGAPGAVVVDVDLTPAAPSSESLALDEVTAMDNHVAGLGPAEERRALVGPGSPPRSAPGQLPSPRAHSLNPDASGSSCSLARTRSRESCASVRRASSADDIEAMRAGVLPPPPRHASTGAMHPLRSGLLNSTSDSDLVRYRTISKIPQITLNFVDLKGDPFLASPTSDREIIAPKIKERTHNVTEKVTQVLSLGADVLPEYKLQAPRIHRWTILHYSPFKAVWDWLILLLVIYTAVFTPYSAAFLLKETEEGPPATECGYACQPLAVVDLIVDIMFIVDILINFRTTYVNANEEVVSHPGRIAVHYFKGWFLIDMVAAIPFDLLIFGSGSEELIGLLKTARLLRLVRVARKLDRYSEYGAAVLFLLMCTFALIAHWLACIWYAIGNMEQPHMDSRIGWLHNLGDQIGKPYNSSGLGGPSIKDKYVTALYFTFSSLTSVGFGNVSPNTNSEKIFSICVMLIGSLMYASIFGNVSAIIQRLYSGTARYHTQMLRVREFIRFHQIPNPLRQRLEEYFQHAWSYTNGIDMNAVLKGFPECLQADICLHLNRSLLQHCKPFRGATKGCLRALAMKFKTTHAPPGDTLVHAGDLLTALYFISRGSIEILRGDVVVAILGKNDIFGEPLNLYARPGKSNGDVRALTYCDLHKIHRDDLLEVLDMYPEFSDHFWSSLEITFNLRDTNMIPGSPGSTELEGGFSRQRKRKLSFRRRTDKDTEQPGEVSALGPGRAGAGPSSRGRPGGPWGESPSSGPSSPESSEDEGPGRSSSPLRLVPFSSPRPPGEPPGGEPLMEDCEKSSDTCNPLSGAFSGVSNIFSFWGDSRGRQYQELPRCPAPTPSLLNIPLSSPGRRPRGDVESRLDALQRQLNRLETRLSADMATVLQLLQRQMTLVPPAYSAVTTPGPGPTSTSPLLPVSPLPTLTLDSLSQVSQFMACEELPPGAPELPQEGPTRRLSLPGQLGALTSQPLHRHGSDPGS
The conditions of data set [13]: male, BALB/c, mouse, in vivo.
A short description of data set [14]: in vivo. The note with it: male, BALB/c, mouse; for Cmax at 24 h: Cmax (ng/mL).
Data set [15] in a line: in vitro. The settings on record: human, microsomes, pH 7.4.
Data set [16] can be described thus: in vitro. The note with it: CD-1, mouse, microsomes, pH 7.4.
The target of data set [17] is T1, hERG potassium channel. Description: in vitro. The settings on record: pH 7.2.
Where [18] appears, read: ip, 10 mg/kg, Brain-Kp (AUClast).
The mark [19] stands for this setting: po, 50 mg/kg, Brain-Kp (AUClast).

Broadly, the IC50 is the concentration at which inhibition is half-maximal. In general, EC50 refers to the concentration giving half of the maximal effect. The term Cmax denotes the highest concentration seen after dosing. In general, half-life refers to the time in which the quantity being followed falls by half. For orientation: AUC(0-t) means the area under the concentration-time curve up to a stated or last time point.

Where two headings read alike, the source gives them in different places. Bounds are passed on as bounds.

With `O=C(CNCCC1CCN(Cc2ccccc2)CC1)Nn1c2ccccc2c2ccccc21` [Compound 1], in [1], the inhibition at 10 µM worked out at 25%. For the same compound, the “SI (pEBOV) (CC50/EC50)” value in data set [2] was determined as 19. In addition, the “SI (CC50/EC50), replicative EBOV” value in data set [3] came to 11.0. Further, the IC50 in data set [4] is 0.37 µM. In addition, the EC50 in data set [5] is 0.37 µM; in data set [6], 1.5 µM.

As to `O=C(CCNCCC1CCN(Cc2ccccc2)CC1)Nn1c2ccccc2c2ccccc21` [Compound 2], the inhibition at 10 µM in data set [1] was determined as 10%. For the same compound, in data set [2], the “SI (pEBOV) (CC50/EC50)” value is listed as 2.87. For the same compound, in data set [3], the “SI (CC50/EC50), replicative EBOV” value stood at 9.1. Further, the values for the CC50 at 24 h in data set [7] and in [8] were 0.46 µM and 4.75 µM, respectively. Further, the EC50 in data set [5] was found to be 0.16 µM; in data set [6], 0.52 µM.

As for `O=C(CNCCC1CCN(Cc2ccccc2)CC1)NC1c2ccccc2-c2ccccc21` [Compound 9, 2-((2-(1-Benzylpiperidin-4-yl)ethyl)amino)-N-(9H-fluoren-9-yl)acetamide], the inhibition at 10 µM in data set [1] is -10%. The “SI (pEBOV) (CC50/EC50)” value in data set [2] amounted to 93. Besides, the “SI (CC50/EC50), replicative EBOV” value in data set [3] is recorded as 134.6. Moreover, the CC50 at 24 h in [7] was 159 µM; in data set [8], 33.6 µM. For the same compound, the results for the EC50 in data set [5] and in [6] were 1.7 µM and 0.25 µM, respectively.

As for `O=C(CNCCC1CCN(Cc2ccccc2)CC1)NN(c1ccccc1)c1ccccc1` [Compound 10, 2-((2-(1-Benzylpiperidin-4-yl)ethyl)amino)-N′,N′-diphenylacetohydrazide], the inhibition at 10 µM in [1] came to 2%. Besides, in data set [2], the “SI (pEBOV) (CC50/EC50)” value was 15. Moreover, the “SI (CC50/EC50), replicative EBOV” value in [3] is 16.9. The results for the CC50 at 24 h in [7] and in data set [8] were 48 µM and 32.2 µM, respectively. In addition, the EC50 came out at 3.13 µM in data set [5] and 1.9 µM in data set [6].

In the case of `O=C(CCNCCC1CCN(Cc2ccccc2)CC1)NN(c1ccccc1)c1ccccc1` [Compound 11, 3-((2-(1-Benzylpiperidin-4-yl)ethyl)amino)-N′,N′-diphenylpropanehydrazide], the inhibition at 10 µM in data set [1] is 50%. Besides, in [9], the “loss of binding between EBOV-GPcl/NPC1-domain C” value is “does it to a lesser extent”. For the same compound, the “CLint (mL/min/mg protein), human liver microsomes” value in data set [10] amounted to 13 ± 1 mL/min/mg protein. The “CLint (mL/min/mg protein), mouse liver microsomes” value in [11] is 96 ± 23 mL/min/mg protein. In addition, in [12], the “cardiotoxicity classification from hERG IC50” value was “not cardiotoxic”. For the same compound, the “estimated concentration on plasma” value in data set [13] was 0.62 µM. In addition, the “AUClast” value in [13] (po, 50 mg/kg, 24 h) was 3354.96 ng·h/mL. Further, the “Cmax” value in data set [13] (po, 50 mg/kg, 24 h) turned out to be 201.45 ng/mL. Moreover, the Kp at 24 h worked out at 2.04 in data set [14] (setting [18]); 0.18 in data set [14] (ip, 10 mg/kg, Brain-Kp (Cmax)); 1.66 in [14] (setting [19]); 0.72 in data set [14] (po, 50 mg/kg, Brain-Kp (Cmax)). In addition, in [14] (po, 50 mg/kg), the half-life at 24 h is 352 min. In data set [14] (po, 50 mg/kg, AUClast (h × ng/mL)), this compound came in with an AUC(0-t) at 24 h of 2020 ng·h/mL. The highest level in data set [14] (po, 50 mg/kg) (Cmax at 24 h) was 278 ng/mL. The CC50 at 24 h in data set [7] worked out at 6 µM; in [8], 9.47 µM. Also, the results for the half-life at 1 h, 10 µM in data set [15] and in data set [16] were 45 ± 3 min and 26 ± 6 min, respectively. The same compound gave an IC50 in [17] of 16.4 µM. Further, the EC50 came to 0.05 µM in [5] and 0.3 µM in data set [6].

With `O=C(CNCCN1CCN(Cc2ccccc2)CC1)NN(c1ccccc1)c1ccccc1` [Compound 12, 2-((2-(4-Benzylpiperazin-1-yl)ethyl)amino)-N′,N′-diphenylacetohydrazide], the inhibition at 10 µM in data set [1] was -29%. Also, the “SI (pEBOV) (CC50/EC50)” value in data set [2] was 63. In addition, the “SI (CC50/EC50), replicative EBOV” value in data set [3] was 12.9. The CC50 at 24 h in [7] was found to be 108 µM; in data set [8], 101 µM. Further, the EC50 in [5] came to 2.17 µM; in data set [6] it was 7.8 µM.

For the compound `O=C(CCNCCN1CCN(Cc2ccccc2)CC1)NN(c1ccccc1)c1ccccc1` [Compound 13, 3-((2-(4-Benzylpiperazin-1-yl)ethyl)amino)-N′,N′-diphenylpropanehydrazide], in data set [1], the inhibition at 10 µM came out at 42%. Besides, the “loss of binding between EBOV-GPcl/NPC1-domain C” value in [9] is reported as “interferes with the NPC1/EBOV-GPcl interaction similarly than our hit 1 (SC816)”. Also, the “CLint (mL/min/mg protein), human liver microsomes” value in [10] is 10.8 ± 0.3 mL/min/mg protein. The “CLint (mL/min/mg protein), mouse liver microsomes” value in [11] is recorded as 170 ± 20 mL/min/mg protein. The “cardiotoxicity classification from hERG IC50” value in [12] is recorded as “not cardiotoxic”. In data set [13] (ip, 10 mg/kg, 24 h), the “Cmax” value stood at 170.55 ng/mL. For the same compound, the half-life at 24 h in data set [14] (ip, 10 mg/kg) is 46.2 min; in [14] (po, 50 mg/kg) it was 262 min. Besides, the Kp at 24 h in data set [14] (setting [18]) was 46.4; in data set [14] (ip, 10 mg/kg, Brain-Kp (Cmax)), 0.99; in data set [14] (setting [19]), 46.5; in data set [14] (po, 50 mg/kg, Brain-Kp (Cmax)), 3.65. Also, the peak level in data set [14] (ip, 10 mg/kg) (Cmax at 24 h) was 172 ng/mL. In addition, the CC50 at 24 h was found to be 159 µM in data set [7] and 35.5 µM in data set [8]. The values for the half-life at 1 h, 10 µM in [15] and in data set [16] were 53 ± 2 min and 14 ± 2 min, respectively. Further, half-maximal inhibition in data set [17] (IC50) required 14.9 µM. The EC50 in [5] worked out at 0.58 µM; in data set [6], 2.7 µM.

Consider `CN1CCN(CCC(=O)NN(c2ccccc2)c2ccccc2)CC1` [Compound 14, 3-(4-Methylpiperazin-1-yl)-N′,N′-diphenylpropanehydrazide], for which the inhibition at 10 µM in data set [1] was determined as 2%. Further, the “SI (pEBOV) (CC50/EC50)” value in [2] was 358. Besides, the CC50 in data set [7] and in data set [8] was greater than 100 µM each time. The EC50 is 0.27 µM in data set [5] and greater than 100 µM in [6].
